What is called IC50 is the point on the concentration scale where inhibition reaches its midpoint.

Square brackets hold non-standard residues; d marks the D form. Ends that are not written are not given here. Peptide text beside a SMILES is read from it.

The first assay has as its target galanin receptor. The experiment in a line: Displacement of 125I-galanin, membranes from rat hypothalamus. Format: binding. Conditions: displacement experiments in rat hypothalamus, 125I-galanin. How it is done: Adult male rats (Sprague-Dawley, 180-200 g) were decapitated, the hypothalami quickly dissected and homogenized (10% mass/vol.) in 0.05M TRIS-Cl buffer, pH 7.4. The homogenate was diluted tenfold and centrifuged at 1000 × g for 10 min. The supernatant was centrifuged at 10,000 × g for 45 min and the pellet resuspended in 5 mM Hepes buffered Krebs-Ringer solution (137 mM NaCl, 2.68 mM KCl, 1.8 mM CaCl2 1 g/1 glucose), pH 7.4 to yield a final protein concentration of 1.0-1.5 mg/ml.
Displacement experiments were carried out in a final volume of 400 μl of Hepes-buffered (5 mM) Krebs-Ringer solution, 0.05% (w/v) of BSA (pH 7.4 ) supplemented with bacitracin (1 mg/ml ) in the presence of 0.1-0.2 nM 1251-galanin, the membrane preparation from rat hypothalami and increasing concentrations (10-12, 10^-6M) of unlabeled galanin or of other galanin recepto-ligands. Samples were incubated for 30 min at 37° C. Incubation was terminated by the addition of 10 ml of ice-cold Hepes-buffered Krebs-Ringer solution, followed by rapid filtration over Whatman GF/C filters, precoated for 5-6 hours in 0.3% (v/v) of polyethylencimine solution. The filters were washed with 10 ml of assay solution. Radioactivity retained on the filters was determined in a Packard gamma counter. Specific binding was defined as that displaceable by 1 μM galanin.
The 1C50 values of the displacing ligands were calculated by fitting of the experimental data on a Macintosh SE by means of a nonlincar least squares method using the program "KaleidaGraph".
On the technique in general: Displacement assays read how much labelled ligand stays bound in the presence of the test substance.
For `CC[C@H](C)[C@H](NC(=O)[C@H](Cc1ccc(O)cc1)NC(=O)[C@H](Cc1c[nH]cn1)NC(=O)[C@H](CCCNC(=N)N)NC(=O)[C@@H]1CCCN1C(=O)CNC(=O)[C@H](CC(C)C)NC(=O)[C@H](CC(C)C)NC(=O)[C@H](Cc1ccc(O)cc1)NC(=O)CNC(=O)[C@H](C)NC(=O)[C@H](CO)NC(=O)[C@H](CC(N)=O)NC(=O)[C@H](CC(C)C)NC(=O)[C@@H](NC(=O)[C@H](Cc1c[nH]c2ccccc12)NC(=O)CN)[C@@H](C)O)C(=O)N[C@@H](CC(N)=O)C(=O)N[C@@H](CC(C)C)C(=O)N[C@H](C(=O)N[C@H](C(=O)N[C@@H](CCCNC(=N)N)C(=O)N[C@@H](CCC(N)=O)C(=O)N[C@@H](CCCNC(=N)N)C(=O)N[C@@H](Cc1ccc(O)cc1)C(N)=O)[C@@H](C)O)[C@@H](C)CC` [M 32, Galanin(1-13)-NPY(25-36) amide], the 50% inhibitory concentration (IC50) stood at 0.05 nM.

`CC(C)C[C@H](NC(=O)[C@H](CC(C)C)NC(=O)[C@H](Cc1ccc(O)cc1)NC(=O)CNC(=O)[C@H](C)NC(=O)[C@H](CO)NC(=O)[C@H](CC(N)=O)NC(=O)[C@H](CC(C)C)NC(=O)[C@@H](NC(=O)[C@H](Cc1c[nH]c2ccccc12)NC(=O)CN)[C@@H](C)O)C(=O)NCC(=O)N1CCC[C@H]1C(=O)N[C@@H](CCCCNC(=O)[C@@H]1CCCN1C(=O)[C@H](CC(C)C)NC(=O)[C@H](Cc1ccccc1)NC(=O)CNC(=O)CNC(=O)[C@@H](N)Cc1ccc(O)cc1)C(N)=O` [M34,A, Galanin(1-13)-Lys amide (Pro-Leuenkephalin(5-1))] registered an IC50 of 10 nM.

Take “GWTLNSAGYLLGPPPLFGGY-NH2 [M36,A, Galanin(1-12)-ProProPro-Leuenkephalin(5-1) amide]”: the IC50 turned out to be 20 nM.

Turning to `CC(C)C[C@H](NC(=O)[C@H](CC(C)C)NC(=O)[C@@H](Cc1c[nH]c2ccccc12)NC(=O)[C@H](Cc1ccccc1)NC(=O)[C@@H](Cc1c[nH]c2ccccc12)NC(=O)[C@H](CCC(N)=O)NC(=O)[C@H](CCC(N)=O)NC(=O)[C@@H]1CCCN1C(=O)[C@H](CCCCN)NC(=O)[C@@H]1CCCN1C(=O)[C@@H](CCCNC(=N)N)NC(=O)[C@@H]1CCCN1C(=O)CNC(=O)[C@H](CC(C)C)NC(=O)[C@H](CC(C)C)NC(=O)[C@H](Cc1ccc(O)cc1)NC(=O)CNC(=O)[C@H](C)NC(=O)[C@H](CO)NC(=O)[C@H](CC(N)=O)NC(=O)[C@H](CC(C)C)NC(=O)[C@@H](NC(=O)[C@H](Cc1c[nH]c2ccccc12)NC(=O)CN)[C@@H](C)O)C(N)=O` [C 7, Galanin(1-12)-Pro-Spantide amide] (H-GWTLNSAGYLLGP[dR]PKPQQ[dW]F[dW]LL-NH2; N-terminus assumed), the IC50 was found to be 0.2 nM.

Turning to “GWTLNSAGYLLGPPPYGGFL-NH2 [M 36, Galanin(1-12)-ProProPro-Leuenkephalin(1-5) amide]”, the concentration for half-maximal inhibition (IC50) was 40 nM.

`CC(C)C[C@H](NC(=O)[C@H](CC(C)C)NC(=O)[C@H](Cc1ccc(O)cc1)NC(=O)CNC(=O)[C@H](C)NC(=O)[C@H](CO)NC(=O)[C@H](CC(N)=O)NC(=O)[C@H](CC(C)C)NC(=O)[C@@H](NC(=O)[C@H](Cc1c[nH]c2ccccc12)NC(=O)CN)[C@@H](C)O)C(=O)NCC(=O)N1CCC[C@H]1C(=O)N1CCC[C@H]1C(=O)N1CCC[C@H]1C(=O)NCC(=O)N[C@@H](Cc1ccccc1)C(=O)N[C@@H](CO)C(=O)N1CCC[C@H]1C(=O)N[C@@H](Cc1ccccc1)C(=O)N[C@@H](CCCNC(=N)N)C(N)=O` [M 35, Galanin(1-13)-Bradykinin(2-9) amide] registered an IC50 of 0.2 nM.

The compound “GWTLNSAGYLLGARHYINLITRQRY-NH2 [M 88, Galanin(1-12)-Ala-NPY(25-36) amide]” came in with an IC50 of 1 nM.

For “GWTLNSAGYLLGPPPALALA-NH2 [M 40, Galanin(1-12)- -ProProProAlaLeuAlaLeuAla amide]”, the half-inhibitory concentration (IC50) was found to be 13 nM.

For the compound “GWTLNSAGYLLGPALALALA-NH2 [M 38, Galanin(1-13)-AlaLeuAlaLeuAlaLeuAla amide]”, the half-inhibitory concentration (IC50) was 0.2 nM.

With “GWTLNSAGYLLGPPGFSPFR-NH2 [M20, Galanin(1-13)-Bradykinin(3-9) amide]”, the half-maximal inhibitory concentration (IC50) is 1 nM.

Consider “GWTLNSAGYLLGPPPQQFFGLM-NH2 [M37, Galanin(1-12)-ProProPro-SP(5-11) amide]”, for which the IC50 came to 40 nM.

The same assay, now with this note: membranes from rat hypothalami.
Take “Rat galanin: galanin of rat sequence, unlabeled displacer [reference compound]”: the “Displacement curves, rat versus porcine galanin” value was “indistriguishable displacement curves”.

Another assay deals with galanin receptor. The experiment in a line: Displacement of 125I-galanin from membranes of Rin m 5F cells. It counts as binding, rat. Conditions: Rin m 5F membranes, read-out: IC50. Here is the method:
4) Ligand binding studies were conducted. Displacement of ^125 I-galanin by galanin, galanin fragment (1-13), Substance P fragment (4-11), galanin fragment (1-13) + Substance P fragment (4-11) in equimolar concentrations and the peptides of the invention M15, M35 and M34, A was studied.
Synthetic porcine galanin(1-29) was iodinated by chloramine-T-method to yield ^125 I-monoiodo-Tyr^26 -porcine galanin (specific activity 1800-2000 Ci/mmol), (as described by Land T., et al in: Methods in Neurosciences, Ed. M. Conn, 5, 1991, 225-234), and employed in ligand binding studies carried out at equilibrium.
The establishment and cell culture of Rin m 5F (a rat pancreatic β-tumor cell-line) cells have been described earlier (Gazdav A. F., et. al. Proc. Natl. Acad. Sci. USA, 77 (1980) 3519-3523). Briefly, the cells were grown in RPMI-1640 (Gibco) medium containing 10% (v/v) fetal calf serum, 2.06 mM L-gluthamine, 100 IU/ml penicillin and 100 μg/ml streptomycin in 10% CO2 -90% air 37° C. They were passaged every 5 days. The cells were detached from the surface of the bottles using 0.25% trypsin containing 1 mM EDTA and centrifuged at 2000 × g for 5 min at 4° C. The pellet was exposed for 15 min to hypoosmotic 5 mM HEPES buffer (pH 7.4). The suspension was centrifuged at 20000 × g for 15 min, the resulting pellet was resuspended in bacitracin-containing ([…]) 5 mM HEPES-buffered Krebs-Ringer solution (137 mM NaCl, […], 1.8 mM CaCl2, 1 g/1 glucose), pH 7.4, and used immediately in equilibrium binding experiments.
Displacement experiments were carried out in a final volume of 400 μl of bacitracin-containing (1 mg/ml) HEPES-buffered (5 mM) Krebs-Ringer solution, 0.05% (w/v) of BSA (pH 7.4) in the presence of 0.1-0.2 nM ^125 I-galanin, the membrane preparation and the increasing concentrations (10^-12 -10^-6 M) of unlabeled porcine galanin or of other galanin receptor ligands. Samples were incubated for 30 min at 37° C. Incubation was terminated by the addition of 10 ml of ice-cold HEPES-buffered Krebs-Ringer solution, followed by rapid filtration over Whatman GF/C filters, precoated for 5-6 hours in 0.3% (v/v) of polyethyleneimine solution. Filters were washed with 10 ml of assay solution. Radioactivity retained on the filters was determined in a Packard gamma counter. Specific binding was defined as that displaceable by 1 μM galanin (or appropriate concentration of a displacer).
The IC50 values of the displacing ligands were calculated from the computer-generated IC50 values as described by Land, T., et. al. (ibid).
Fitting of the experimental data was carried out on a Macintosh SE by means of a nonlinear least squares method using the Macintosh program "KaleidGraph".
Turning to `CC(C)C[C@H](NC(=O)[C@H](CC(C)C)NC(=O)[C@H](Cc1ccc(O)cc1)NC(=O)CNC(=O)[C@H](C)NC(=O)[C@H](CO)NC(=O)[C@H](CC(N)=O)NC(=O)[C@H](CC(C)C)NC(=O)[C@@H](NC(=O)[C@H](Cc1c[nH]c2ccccc12)NC(=O)CN)[C@@H](C)O)C(=O)NCC(=O)N1CCC[C@H]1C(=O)N[C@@H](CCCCNC(=O)[C@@H]1CCCN1C(=O)[C@H](CC(C)C)NC(=O)[C@H](Cc1ccccc1)NC(=O)CNC(=O)CNC(=O)[C@@H](N)Cc1ccc(O)cc1)C(N)=O` [M34,A, Galanin(1-13)-Lys amide (Pro-Leuenkephalin(5-1))], the IC50 worked out at 10 nM.

Consider `CC(C)C[C@H](NC(=O)[C@H](CC(C)C)NC(=O)[C@H](Cc1ccc(O)cc1)NC(=O)CNC(=O)[C@H](C)NC(=O)[C@H](CO)NC(=O)[C@H](CC(N)=O)NC(=O)[C@H](CC(C)C)NC(=O)[C@@H](NC(=O)[C@H](Cc1c[nH]c2ccccc12)NC(=O)CN)[C@@H](C)O)C(=O)NCC(=O)N1CCC[C@H]1C(=O)N1CCC[C@H]1C(=O)N1CCC[C@H]1C(=O)NCC(=O)N[C@@H](Cc1ccccc1)C(=O)N[C@@H](CO)C(=O)N1CCC[C@H]1C(=O)N[C@@H](Cc1ccccc1)C(=O)N[C@@H](CCCNC(=N)N)C(N)=O` [M 35, Galanin(1-13)-Bradykinin(2-9) amide], for which the concentration for half-maximal inhibition (IC50) came out at 0.1 nM.

As to `CC(C)C[C@H](NC(=O)[C@H](CC(C)C)NC(=O)[C@H](Cc1ccc(O)cc1)NC(=O)CNC(=O)[C@H](C)NC(=O)[C@H](CO)NC(=O)[C@H](CC(N)=O)NC(=O)[C@H](CC(C)C)NC(=O)[C@@H](NC(=O)[C@H](Cc1c[nH]c2ccccc12)NC(=O)CN)[C@@H](C)O)C(=O)NCC(=O)N1CCC[C@H]1C(=O)O` [Galanin fragment (1-13), reference compound], the IC50 was determined as 100 nM.

Staying with this assay, now noted: Rin m 5F membranes, read-out: IC50 (no displacement).
Turning to “Substance P fragment (4-11): fragment 4-11 of Substance P (PQQFFGLM; ends and bridges not checked; UniProt P20366 61-68, looked up, fragment) [reference compound]”, the 50% inhibitory concentration (IC50) is greater than 10000 nM.
